Assay in all cases: ≥ marks a high value that may be exact or a test limit, other limits are often not marked, values filed in µg/mL are converted to µM
In one experiment the test system is Bacillus subtilis.
For experiment [1], the system named is Candida albicans ATCC 2002.
In experiment [2] the test system is Escherichia coli ATCC 25922.
The test system of experiment [3] is Staphylococcus aureus ATCC 2592.
Experiment [4] concerns Acinetobacter baumannii ATCC 19606.
In experiment [5] the test system is Bacillus subtilis ATCC 23857.
The subject of experiment [6] is Enterococcus faecalis ATCC 29212.
The subject of experiment [7] is Klebsiella pneumoniae ATCC 700603.
Experiment [8] concerns Pseudomonas aeruginosa ATCC 27853.
In experiment [9] the test system is Staphylococcus aureus ATCC 25923.
Experiment [10] relates to Staphylococcus epidermidis ATCC 12228.
Experiment [11] relates to Staphylococcus aureus ATCC BAA-1556.
The subject of another experiment is Micrococcus luteus.

≈ marks a conversion by molar mass, not a printed value.

Usually MIC stands for the least concentration at which growth counts as inhibited. In the case of `CC[C@H](C)[C@@H]1NC(=O)[C@H](CO)NC(=O)[C@H](CCCCN)NC(=O)[C@H]([C@@H](C)O)NC(=O)[C@H](Cc2c[nH]c3ccccc23)NC(=O)[C@@H](N)CSSC[C@@H](C(=O)N[C@@H](Cc2ccccc2)C(=O)O)NC(=O)[C@@H]2CCCN2C(=O)[C@H](CCCCN)NC(=O)[C@@H]2CCCN2C(=O)[C@@H]2CCCN2C1=O` [CWTKSIPPKPCF], the MIC was 7.46 µM (≈ 10.5 µg/mL) with Bacillus subtilis, 13.8 µM (≈ 19.4 µg/mL) in experiment [1], 6.33 µM (≈ 8.89 µg/mL) in [2] and 4.24 µM (≈ 5.95 µg/mL) in experiment [3].

Regarding `CC[C@H](C)[C@H](NC(=O)[C@@H](N)Cc1ccccc1)C(=O)N1CCC[C@H]1C(=O)N[C@@H](CC(C)C)C(=O)N[C@H](C(=O)N[C@@H](CO)C(=O)NCC(=O)N[C@@H](CC(C)C)C(=O)N[C@@H](Cc1ccccc1)C(=O)N[C@@H](CO)C(=O)N[C@@H](CCCN=C(N)N)C(=O)N[C@@H](CC(C)C)C(=O)N[C@@H](CC(C)C)C(N)=O)C(C)C` [FIPLVSGLFSRLL], the results for the MIC in experiment [1], in experiment [2] and in experiment [3] were 8.55 µM (≈ 12.5 µg/mL), 8.55 µM (≈ 12.5 µg/mL) and 4.28 µM (≈ 6.25 µg/mL), respectively.

`CC[C@H](C)[C@H](NC(=O)[C@H](CCCN=C(N)N)NC(=O)[C@H](CCCN=C(N)N)NC(=O)[C@H](Cc1ccccc1)NC(=O)[C@H](Cc1ccccc1)NC(=O)CN)C(=O)N[C@@H](CCCN=C(N)N)C(=O)N[C@H](C(=O)N[C@@H](Cc1ccccc1)C(=O)N[C@@H](Cc1ccccc1)C(N)=O)[C@@H](C)O` [GFFRRIRTFF]: the MIC in experiment [4] came to 32 µM (≈ 43.1 µg/mL); in experiment [5], 8 µM (≈ 10.8 µg/mL); in experiment [6] it was 32 µM (≈ 43.1 µg/mL); in [2], 32 µM (≈ 43.1 µg/mL); in [7] it was 32 µM (≈ 43.1 µg/mL); in experiment [8], 4 µM (≈ 5.38 µg/mL). Further, the minimal inhibitory concentration (MIC) in experiment [9] is 8 µM (≈ 10.8 µg/mL); in experiment [10], 32 µM (≈ 43.1 µg/mL).

Take `CC[C@H](C)[C@H](NC(=O)CN)C(=O)N[C@H](C(=O)N[C@@H](C)C(=O)NCC(=O)N[C@H](C(=O)N[C@H](C(=O)N[C@H](C(=O)N[C@@H](C)C(=O)N[C@H](C(=O)N[C@@H](CCCCN)C(=O)N[C@@H](CCCCN)C(N)=O)[C@@H](C)CC)[C@@H](C)CC)[C@@H](C)CC)[C@@H](C)CC)[C@@H](C)CC` [GIIAGIIIAIKK]: the MIC in experiment [5] was 8 µM (≈ 9.67 µg/mL); in [2] it was more than 128 µM.

As to `CC[C@H](C)[C@H](NC(=O)CN)C(=O)N[C@@H](CCCN=C(N)N)C(=O)N[C@@H](CCCN=C(N)N)C(=O)NCC(=O)N[C@H](C(=O)N[C@@H](CCCN=C(N)N)C(=O)N[C@@H](CCCN=C(N)N)C(=O)N[C@H](C(=O)N[C@H](C(=O)N[C@@H](CCCCN)C(=O)N[C@@H](CCCN=C(N)N)C(N)=O)[C@@H](C)CC)[C@@H](C)CC)[C@@H](C)CC` [GIRRGIRRIIKR], the MIC in experiment [5] is not below 128 µM; in experiment [2] it was more than 128 µM.

With `CC[C@H](C)[C@H](NC(=O)[C@H](CCCN=C(N)N)NC(=O)[C@H](CCCCN)NC(=O)[C@H](Cc1ccccc1)NC(=O)[C@H](Cc1c[nH]c2ccccc12)NC(=O)[C@@H](N)CCCCN)C(=O)N[C@@H](CCCCN)C(=O)N[C@H](C(=O)N[C@@H](Cc1ccccc1)C(=O)N[C@@H](Cc1c[nH]c2ccccc12)C(N)=O)[C@@H](C)O` [KWFKRIKTFW], the MIC is 128 µM (≈ 184 µg/mL) in [4]; 16 µM (≈ 23 µg/mL) in experiment [5]; 64 µM (≈ 92.1 µg/mL) in experiment [6]; 16 µM (≈ 23 µg/mL) in [2]; 32 µM (≈ 46 µg/mL) in experiment [7]; 8 µM (≈ 11.5 µg/mL) in experiment [8]. The figures for the MIC in experiment [9] and in experiment [10] were 16 µM (≈ 23 µg/mL) and 128 µM (≈ 184 µg/mL), respectively.

In experiment [11], `CC[C@H](C)[C@H](NC(=O)[C@H](C)NC(=O)[C@H](CCCN=C(N)N)NC(=O)[C@H](CCCN=C(N)N)NC(=O)[C@H](Cc1c[nH]c2ccccc12)NC(=O)[C@@H](N)CCCCN)C(=O)N[C@@H](CCCN=C(N)N)C(=O)N[C@@H](Cc1c[nH]c2ccccc12)C(=O)N[C@@H](CC(C)C)C(N)=O` [KWRRAIRWL] came in with an MIC of 25 µM (≈ 32.1 µg/mL).

The compound `CC[C@H](C)[C@H](NC(=O)[C@H](CC(C)C)NC(=O)[C@H](CCCN=C(N)N)NC(=O)[C@H](CCCN=C(N)N)NC(=O)[C@H](Cc1c[nH]c2ccccc12)NC(=O)[C@@H](N)CCCCN)C(=O)N[C@@H](CCCN=C(N)N)C(=O)N[C@@H](Cc1c[nH]c2ccccc12)C(=O)N[C@@H](CC(C)C)C(N)=O` [KWRRLIRWL] displayed an MIC in experiment [11] of 25 µM (≈ 33.1 µg/mL).

`CC(C)C[C@H](NC(=O)[C@H](Cc1c[nH]c2ccccc12)NC(=O)[C@H](CCCN=C(N)N)NC(=O)[C@H](CC(C)C)NC(=O)[C@H](Cc1c[nH]c2ccccc12)NC(=O)[C@H](CCCN=C(N)N)NC(=O)[C@H](CCCN=C(N)N)NC(=O)[C@H](Cc1c[nH]c2ccccc12)NC(=O)[C@@H](N)CCCCN)C(N)=O` [KWRRWLRWL] had an MIC in experiment [11] of 3.12 µM (≈ 4.37 µg/mL). Compared with the last compound, the MIC is about 8-fold lower.

As to `CC(C)C[C@H](NC(=O)[C@H](CC(C)C)NC(=O)[C@H](CC(C)C)NC(=O)[C@H](CC(C)C)NC(=O)[C@H](CC(C)C)NC(=O)[C@H](CCCCN)NC(=O)[C@H](CCCCN)NC(=O)[C@H](CC(C)C)NC(=O)[C@@H](N)CC(C)C)C(N)=O` [LLKKLLLLL], the MIC in experiment [11] stood at 12.5 µM (≈ 13.3 µg/mL).

`CC(C)C[C@H](NC(=O)[C@H](CC(C)C)NC(=O)[C@H](CC(C)C)NC(=O)[C@H](CC(C)C)NC(=O)[C@H](CCCCN)NC(=O)[C@H](CCCCN)NC(=O)[C@H](CC(C)C)NC(=O)[C@H](CC(C)C)NC(=O)[C@@H](N)CC(C)C)C(N)=O` [LLLKKLLLL] returned an MIC in experiment [11] not below 100 µM.

Compound `CC(C)C[C@H](NC(=O)[C@H](CC(C)C)NC(=O)[C@H](CCCCN)NC(=O)[C@H](CC(C)C)NC(=O)[C@H](CCCCN)NC(=O)[C@H](CC(C)C)NC(=O)[C@H](CC(C)C)NC(=O)[C@H](CC(C)C)NC(=O)[C@@H](N)CC(C)C)C(N)=O` [LLLLKLKLL] displayed an MIC in experiment [11] not below 100 µM.

In the experiment on Micrococcus luteus, `CC[C@H](C)[C@H](NC(=O)[C@H](CCC(=O)O)NC(=O)[C@@H]1CCCN1C(=O)[C@H](CO)NC(=O)[C@H](Cc1ccccc1)NC(=O)[C@H](C)NC(=O)[C@@H](NC(=O)CNC(=O)[C@H](CC(C)C)NC(=O)[C@H](CCCCN)NC(=O)[C@H](C)NC(=O)[C@H](C)NC(=O)[C@H](CCSC)NC(=O)[C@@H](NC(=O)[C@@H](NC(=O)[C@@H](NC(=O)[C@H](CC(C)C)NC(=O)[C@H](CS)NC(=O)[C@H](CC(N)=O)NC(=O)CNC(=O)[C@H](CC(C)C)NC(=O)[C@H](CC(C)C)NC(=O)[C@@H](N)CCCN=C(N)N)[C@@H](C)O)C(C)C)C(C)C)[C@@H](C)O)C(=O)N[C@@H](CCC(N)=O)C(=O)N[C@@H](CS)C(=O)N[C@@H](C)C(=O)N[C@@H](Cc1c[nH]c2ccccc12)C(=O)N[C@@H](CCC(N)=O)C(=O)N[C@@H](CCCCN)C(=O)O` [RLLGNCLTVVMAAKLGTAFSPEIQCAWQK] displayed an MIC of 31.2 µM (≈ 98.3 µg/mL).

`CC(C)C[C@H](NC(=O)[C@H](Cc1c[nH]c2ccccc12)NC(=O)[C@H](Cc1c[nH]c2ccccc12)NC(=O)[C@H](CC(C)C)NC(=O)[C@H](Cc1c[nH]c2ccccc12)NC(=O)[C@H](Cc1c[nH]c2ccccc12)NC(=O)[C@H](CC(C)C)NC(=O)[C@H](Cc1c[nH]c2ccccc12)NC(=O)[C@@H](N)CCCN=C(N)N)C(N)=O` [RWLWWLWWL]: in [11], the MIC is 6.25 µM (≈ 9.02 µg/mL).

On to `CC(C)[C@H](N)C(=O)N[C@@H](CCCCN)C(=O)N[C@@H](Cc1c[nH]c2ccccc12)C(=O)N[C@@H](CCCN=C(N)N)C(=O)N[C@@H](Cc1c[nH]c2ccccc12)C(=O)N[C@@H](CCCCN)C(=O)N[C@@H](CCCCN)C(=O)N[C@@H](Cc1c[nH]c2ccccc12)C(=O)N[C@@H](CCCN=C(N)N)C(=O)N[C@@H](Cc1c[nH]c2ccccc12)C(=O)N[C@@H](CCCCN)C(=O)N[C@@H](Cc1c[nH]c2ccccc12)C(=O)N[C@@H](CCCCN)C(=O)N[C@@H](Cc1c[nH]c2ccccc12)C(=O)N[C@@H](CCCCN)C(=O)N[C@H](C(N)=O)C(C)C` [VKWRWKKWRWKWKWKV], for which the MIC against Bacillus subtilis is not below 41.4 µM; in [1] it was not below 41.4 µM; in experiment [2], more than 41.4 µM; in experiment [3] it was not below 41.4 µM.

As to `CC(C)[C@H](N)C(=O)N[C@@H](CCCCN)C(=O)N[C@@H](Cc1c[nH]c2ccccc12)C(=O)N[C@@H](CCCN=C(N)N)C(=O)N[C@@H](Cc1c[nH]c2ccccc12)C(=O)N[C@@H](CCCCN)C(=O)N[C@@H](Cc1c[nH]c2ccccc12)C(=O)N[C@@H](CCCCN)C(=O)N[C@@H](Cc1c[nH]c2ccccc12)C(=O)N[C@@H](CCCN=C(N)N)C(=O)N[C@@H](Cc1c[nH]c2ccccc12)C(=O)N[C@@H](CCCCN)C(=O)N[C@@H](Cc1c[nH]c2ccccc12)C(=O)N[C@@H](CCCCN)C(=O)N[C@@H](Cc1c[nH]c2ccccc12)C(=O)N[C@@H](CCCCN)C(=O)N[C@H](C(N)=O)C(C)C` [VKWRWKWKWRWKWKWKV], the MIC is not below 38.4 µM against Bacillus subtilis, not below 38.4 µM in experiment [1], more than 38.4 µM in experiment [2] and not below 38.4 µM in experiment [3].

The compound `CC(C)C[C@H](NC(=O)[C@H](Cc1c[nH]c2ccccc12)NC(=O)[C@H](Cc1c[nH]c2ccccc12)NC(=O)[C@H](CC(C)C)NC(=O)[C@H](Cc1c[nH]c2ccccc12)NC(=O)[C@@H](N)Cc1c[nH]c2ccccc12)C(=O)N[C@@H](CCCN=C(N)N)C(=O)N[C@@H](Cc1c[nH]c2ccccc12)C(N)=O` [WWLWWLRW] had an MIC in experiment [11] of 6.25 µM (≈ 8.32 µg/mL).
